Source: patent US20260217701A1, “SELECTIVE BET INHIBITORS AND USES THEREOF” (Tay Therapeutics Limited, priority 2022, published 2026)
“And” between values parts separate entries of the source, which are not always exact repeats. Equal entries are not always repeated.

Test system: collagen-induced arthritis
Assay: Collagen-induced arthritis (CIA) model: clinical scores and paw volume; on Animal paw volume percent change (%): reference of the scale not given here; on Average animal paw volume percent change (%): reference of the scale not given here
Format: in vivo, Lewis rats
Conditions: for Animal paw volume percent change (%) / Animal paw volume / clinical score left forelimb / clinical score right forelimb / clinical score right hind limb / clinical score, score (all limbs) / clinical score left hind limb: individual animals; for Average detailed clinical score, left forelimb / Average detailed clinical score, left hind limb / Average detailed clinical score, right forelimb / Average detailed clinical score, right hind limb / Average detailed clinical score, score / Average overall clinical score / Overall Clinical Score / Animal paw volume: Day 21; for Overall Clinical Score: individual animals 1-8
[1] = Day 21, R paw, group 7 CIA + Compound A 10 mg/kg
[2] = group 5 CIA + Compound A 1 mg/kg, 2nd section of table, 1st day (between Day 12 and Day 18)
[3] = group 5 CIA + Compound A 1 mg/kg, 2nd section of table, 1st day (between Day 12 and Day 18), 1 mg/kg
[4] = group 5 CIA + Compound A 1 mg/kg, 2nd section of table, 2nd day (between Day 12 and Day 18)
[5] = group 5 CIA + Compound A 1 mg/kg, 2nd section of table, 2nd day (between Day 12 and Day 18), 1 mg/kg
[6] = group 5 CIA + Compound A 1 mg/kg, 2nd section of table, 3rd day (between Day 12 and Day 18)
[7] = group 5 CIA + Compound A 1 mg/kg, 2nd section of table, 3rd day (between Day 12 and Day 18), 1 mg/kg
[8] = group 5 CIA + Compound A 1 mg/kg, Day 18
[9] = group 5 CIA + Compound A 1 mg/kg, Day 18, 1 mg/kg
[10] = group 5 CIA + Compound A 1 mg/kg, Day 19
[11] = group 5 CIA + Compound A 1 mg/kg, Day 19, 1 mg/kg
[12] = group 5 CIA + Compound A 1 mg/kg, Day 20
[13] = group 5 CIA + Compound A 1 mg/kg, Day 20, 1 mg/kg
[14] = group 6 CIA + Compound A 3 mg/kg, 2nd section of table, 1st day (between Day 12 and Day 18)
[15] = group 6 CIA + Compound A 3 mg/kg, 2nd section of table, 2nd day (between Day 12 and Day 18)
[16] = group 6 CIA + Compound A 3 mg/kg, 2nd section of table, 2nd day (between Day 12 and Day 18), 3 mg/kg
[17] = group 6 CIA + Compound A 3 mg/kg, 2nd section of table, 3rd day (between Day 12 and Day 18)
[18] = group 6 CIA + Compound A 3 mg/kg, 2nd section of table, 3rd day (between Day 12 and Day 18), 3 mg/kg
[19] = group 6 CIA + Compound A 3 mg/kg, Day 18
[20] = group 6 CIA + Compound A 3 mg/kg, Day 18, 3 mg/kg
[21] = group 6 CIA + Compound A 3 mg/kg, Day 19
[22] = group 6 CIA + Compound A 3 mg/kg, Day 19, 3 mg/kg
[23] = group 6 CIA + Compound A 3 mg/kg, Day 20
[24] = group 6 CIA + Compound A 3 mg/kg, Day 20, 3 mg/kg
[25] = group 7 CIA + Compound A 10 mg/kg, 2nd section of table, 1st day (between Day 12 and Day 18), 10 mg/kg
[26] = group 7 CIA + Compound A 10 mg/kg, 2nd section of table, 2nd day (between Day 12 and Day 18)
[27] = group 7 CIA + Compound A 10 mg/kg, 2nd section of table, 2nd day (between Day 12 and Day 18), 10 mg/kg
[28] = group 7 CIA + Compound A 10 mg/kg, 2nd section of table, 3rd day (between Day 12 and Day 18)
[29] = group 7 CIA + Compound A 10 mg/kg, 2nd section of table, 3rd day (between Day 12 and Day 18), 10 mg/kg

In the case of `Cn1cc(-c2ccccc2)c(-c2cn(C)c(=O)c3[nH]c(-c4cnn(C(F)(F)F)c4)cc23)cc1=O` [Compound A, 6-methyl-4-(1-methyl-2-oxo-5-phenyl-1,2-dihydropyridin-4-yl)-2-(1-(trifluoromethyl)-1H-pyrazol-4-yl)-1,6-dihydro-7H-pyrrolo[2,3-c]pyridin-7-one], the “Average animal paw volume percent change (%)” value (Day 21, R paw, group 6 CIA + Compound A 3 mg/kg) was 38.15%, the “Average animal paw volume” value [1] was 1.81 mL and the “Average animal paw volume percent change (%)” value [1] was 38.27%. For the same compound, the “Animal paw volume percent change (%)” value (Day 21, R paw, group 5 CIA + Compound A 1 mg/kg, 1 mg/kg) was 73.56% and 88.03% and 50.91% and 70.19% and 18.45% and 55.51% and 49.81%, the “Animal paw volume percent change (%)” value (Day 21, R paw, group 6 CIA + Compound A 3 mg/kg, 3 mg/kg) was 64.91% and 27.24% and 46.04% and 29.74% and 60.23% and the “Average detailed clinical score, left forelimb” value (CIA + Compound A 1 mg/kg) was 1.00. The “Average detailed clinical score, left hind limb” value (CIA + Compound A 1 mg/kg) was 4.00, the “Average detailed clinical score, right forelimb” value (CIA + Compound A 1 mg/kg) was 1.00 and the “Average detailed clinical score, right hind limb” value (CIA + Compound A 1 mg/kg) was 3.75. The “Average detailed clinical score, score” value (CIA + Compound A 1 mg/kg) was 9.75, the “Average overall clinical score” value (CIA + Compound A 1 mg/kg) was 5 and the “Overall Clinical Score” value (CIA + Compound A 1 mg/kg, 1 mg/kg) was 0 and 6 (5×) and 8 and 2. The “Average detailed clinical score, left forelimb” value (CIA + Compound A 3 mg/kg) was 0.00, the “Average detailed clinical score, left hind limb” value (CIA + Compound A 3 mg/kg) was 2.50 and the “Average detailed clinical score, right forelimb” value (CIA + Compound A 3 mg/kg) was 1.25. For the same compound, the “Average detailed clinical score, right hind limb” value (CIA + Compound A 3 mg/kg) was 2.75, the “Average detailed clinical score, score” value (CIA + Compound A 3 mg/kg) was 6.50 and the “Average overall clinical score” value (CIA + Compound A 3 mg/kg) was 4. The “Overall Clinical Score” value (CIA + Compound A 3 mg/kg, 3 mg/kg) was 5 (2×) and 3 (2×), the “Average detailed clinical score, left forelimb” value (CIA + Compound A 10 mg/kg) was 0.00 and the “Average detailed clinical score, left hind limb” value (CIA + Compound A 10 mg/kg) was 1.88. The “Average detailed clinical score, right forelimb” value (CIA + Compound A 10 mg/kg) was 0.13, the “Average detailed clinical score, right hind limb” value (CIA + Compound A 10 mg/kg) was 1.63 and the “Average detailed clinical score, score” value (CIA + Compound A 10 mg/kg) was 3.63. For the same compound, the “Average overall clinical score” value (CIA + Compound A 10 mg/kg) was 4, the Animal paw volume (L paw, Group 5 (CIA + Compound A 1 mg/kg), 1 mg/kg) was 2.05 mL and 2.45 mL and 2.08 mL (2×) and 2.27 mL and 1.64 mL and 2.15 mL and the Animal paw volume (L paw, Group 6 (CIA + Compound A 3 mg/kg), 3 mg/kg) was 1.92 mL and 2.19 mL and 1.64 mL and 1.52 mL and 1.80 mL. The Animal paw volume (R paw, Group 5 (CIA + Compound A 1 mg/kg), 1 mg/kg) was 2.27 mL and 2.44 mL and 2.08 mL and 2.26 mL and 1.61 mL and 2.05 mL and 1.99 mL, the Animal paw volume (R paw, Group 6 (CIA + Compound A 3 mg/kg), 3 mg/kg) was 2.19 mL and 1.64 mL and 1.94 mL and 1.75 mL and 2.08 mL and the “clinical score left forelimb” value [2] was 0. For the same compound, the “clinical score right forelimb” value [2] was 0, the “clinical score right hind limb” value [3] was 0 (6×) and 1 (2×) and the “clinical score, score (all limbs)” value [3] was 0 (6×) and 2 and 1. The “clinical score left forelimb” value [4] was 0, the “clinical score right forelimb” value [4] was 0 and the “clinical score left hind limb” value [5] was 0 (5×) and 2 and 1 (2×). For the same compound, the “clinical score right hind limb” value [5] was 0 (5×) and 1 (3×), the “clinical score, score (all limbs)” value [5] was 0 (3×) and 2 (2×) and 1 (3×) and the “clinical score left forelimb” value [6] was 0. For the same compound, the “clinical score right forelimb” value [6] was 0, the “clinical score left hind limb” value [7] was 0 (3×) and 2 (3×) and 1 (2×) and the “clinical score right hind limb” value [7] was 0 (3×) and 2 (2×) and 1 (3×). For the same compound, the “clinical score, score (all limbs)” value [7] was 0 (3×) and 4 and 3 (3×) and 2, the “clinical score left forelimb” value [8] was 0 and the “clinical score right forelimb” value [8] was 0. The “clinical score left hind limb” value [9] was 0 and 2 (3×) and 4 and 3 (2×) and 1, the “clinical score right hind limb” value [9] was 0 and 3 (4×) and 2 (2×) and 1 and the “clinical score, score (all limbs)” value [9] was 0 and 5 (3×) and 7 and 6 and 2 and 4. For the same compound, the “clinical score left forelimb” value [10] was 0, the “clinical score right forelimb” value [10] was 0 and the “clinical score left hind limb” value [11] was 0 and 3 (5×) and 4 and 1. The “clinical score right hind limb” value [11] was 0 and 3 (5×) and 4 and 2, the “clinical score, score (all limbs)” value [11] was 0 and 6 (5×) and 8 and 3 and the “clinical score left forelimb” value [12] was 0. The “clinical score right forelimb” value [12] was 0, the “clinical score left hind limb” value [13] was 0 and 3 (5×) and 4 and 1 and the “clinical score right hind limb” value [13] was 0 and 3 (5×) and 4 and 1. For the same compound, the “clinical score, score (all limbs)” value [13] was 0 and 6 (5×) and 8 and 2, the “clinical score left forelimb” value [14] was 0 and the “clinical score right forelimb” value [14] was 0. The “clinical score left forelimb” value [15] was 0, the “clinical score right forelimb” value [15] was 0 and the “clinical score left hind limb” value [16] was 0 (6×) and 1 (2×). For the same compound, the “clinical score, score (all limbs)” value [16] was 0 (6×) and 1 and 3, the “clinical score left forelimb” value [17] was 0 and the “clinical score right forelimb” value [17] was 0. For the same compound, the “clinical score left hind limb” value [18] was 0 (4×) and 1 (4×), the “clinical score right hind limb” value [18] was 0 (5×) and 2 and 1 (2×) and the “clinical score, score (all limbs)” value [18] was 0 (4×) and 1 and 3 and 2 (2×). The “clinical score left forelimb” value [19] was 0, the “clinical score right forelimb” value [19] was 0 and the “clinical score left hind limb” value [20] was 2. For the same compound, the “clinical score right hind limb” value [20] was 2, the “clinical score, score (all limbs)” value [20] was 4 and the “clinical score left forelimb” value [21] was 0. For the same compound, the “clinical score right forelimb” value [21] was 0, the “clinical score left hind limb” value [22] was 2 and the “clinical score right hind limb” value [22] was 3 and 2. For the same compound, the “clinical score, score (all limbs)” value [22] was 5 and 4, the “clinical score left forelimb” value [23] was 0 and the “clinical score right forelimb” value [23] was 0. For the same compound, the “clinical score left hind limb” value [24] was 2 and 3, the “clinical score right hind limb” value [24] was 3 and the “clinical score, score (all limbs)” value [24] was 5. For the same compound, the “clinical score left forelimb” value (group 7 CIA + Compound A 10 mg/kg, 2nd section of table, 1st day (between Day 12 and Day 18)) was 0, the “clinical score left hind limb” value [25] was 0 (7×) and 1 and the “clinical score right hind limb” value [25] was 0 (6×) and 1 (2×). For the same compound, the “clinical score, score (all limbs)” value [25] was 0 (6×) and 1 and 3, the “clinical score left forelimb” value [26] was 0 and the “clinical score right forelimb” value [26] was 0. For the same compound, the “clinical score left hind limb” value [27] was 0 (6×) and 1 (2×), the “clinical score right hind limb” value [27] was 0 (6×) and 2 and 1 and the “clinical score, score (all limbs)” value [27] was 0 (5×) and 1 and 2 (2×). The “clinical score left forelimb” value [28] was 0, the “clinical score right forelimb” value [28] was 0 and the “clinical score left hind limb” value [29] was 1 (2×) and 0 (4×) and 2 (2×). The “clinical score right hind limb” value [29] was 1 (2×) and 0 (5×) and 2 and the “clinical score, score (all limbs)” value [29] was 2 and 0 (4×) and 1 and 4 and 3.
